Measured values published in patent US6767891B2, “Peptides with wound healing activity” (priority 2000, dated 2004).
Where no end group is shown, it is not given here.

Tests used:
[1] = system: normal human vascular endothelial cells (NHVEC); assay: Boyden chamber migration assay; assay type: cell-based; conditions: for cell migration over migration in the presence of media alone / migration response compared to positive controls VEGF, PDGF, FGF: 100 ng/ml; for concentration of maximal effect on migration: dose response
Procedure: The effects of TB4 and TA1 on endothelial cell migration were determined. To investigate the possibility that these peptides effect the migration of normal human vascular endothelial cells (NHVEC) in vitro, a Boyden chamber migration assay was performed.
In the experiments of Table 1 and FIG. 1, normal human […] endothelial cells are used at 5×10^4 cells per well. The wells are coated with 100 μg/ml […] Type IV.

NHVEC = assay: scratch wound closure assay; assay type: cell-based, human; conditions: 10 ng/ml, scratched confluent monolayer
Procedure: To examine the effects of TB4 and TA1 (10 ng/ml) on NHVEC migration, a scratch would closure assay was used.

venous stasis ulceration = assay: Clinical course of Patient 1, shin ulcer; assay type: in vivo, human
Description: The injury started with a bruise on the left shin, but approximately seven weeks later the area started to get erythematous. The patient was sent by the general internist to the local hospital wound healing center, where the wound was debrided and Silvadene cream was used. However, the patient was not progressing well and grafting was considered. […] The underlying problem was venous stasis with the development of ulceration secondary to minor trauma. The ulcer was about 3.0 cm by 1.0 cm in size with a 1-cm rim of mild erythema. […] The patient was given a preparation containing TA1 to be used twice daily to the small 4 mm area.
The treatment with TA1 was continued for another week twice daily.
At this point, treatment was changed to a preparation containing TB4 to be applied twice daily to the entire ulcer.
After the entire ulcer had been treated for seven days with TB4 twice daily, it was noted that the size of the ulcer was starting to reduce. The wound center physician was concerned about infection (cellulitis around the ulcer). The patient was placed on oral antibiotics for 10 days. However, when the surrounding erythema was palpated, there was no tenderness. The wound appeared to be repairing and increasing the vascular flow to the ulcer base and surrounding skin. The patient felt that after treating the entire for seven days they improved by 40%. The patient was given more preparation containing TB4 for the next week. The internist felt that the patient should not undergo surgery for grafting due to cardiac problems in view of the improvement in the wound.

[2] = system: healed wound erythema, melanin pigmentation; assay: Clinical effects of TB4 in vivo (erythema, pigmentation)
Description: There was not post-inflammatory erythema and hyperpigmentation. Frequently, the skin color was normal and not the expected deep red-purple with brown coloration that would take months to resolve on the leg.
Another effect seen is the reduction of melanin pigmentation on the areas of treatment with TB4.

[3] = system: ulcerations of fingers secondary to burns, diabetes mellitus; assay: Clinical course of Patient 2, finger ulcerations; assay type: in vivo, human
Procedure: The glucose levels of the patient were not kept under control. The patient developed heat burns with blistering and erosions on the patient's fingers. The ulcers are cleansed and Silvadene cream is used for wound healing, which usually takes 2-4 weeks. Occasionally, systematic antibiotics are given.
The patient was seen after having burned the distal phalanx of the left middle finger with a hairdryer 10 days before. The patient had taken some leftover Ceftin 250 mg twice daily and has used Silvadene cream twice daily for the 10 days, but the ulcer would not heal. The ulcer was debrided and the patient was given a preparation containing TA5 to use on the ulcer base twice daily. This ulcer was on the lateral thenar side of the left middle finger.
Approximately six weeks later, the patient had developed new ulcerations of the right index finger on the palmar-ventral side (5 days), and two ulcerations on the right middle finger on the distal digit, lateral thenar side (5 days) and the second digit on the dorsal side (2 weeks history). These ulcerations had developed after the patient had handled hot items. Dicloxacillin (500 mg twice daily) was given for 10 days. The patient was given TB4 wound healing preparation to be used twice daily to the ulcerations.

endothelial cells = assay: MTT (tetrazolium) endothelial cell proliferation assay; assay type: cell-based; conditions: 10 ng/ml; 4 hours and 24 hours
Procedure: The effects of TB4 and TA1 on endothelial cell proliferation were determined using a MTT (tetrazolium) assay. The results are shown in FIG. 2 for 4 hours and 24 hours and for three concentrations of these peptides, 10 ng/ml, 100 ng/ml, and 1000 ng/ml. […] At a concentration of 10 ng/ml, TB4 and TA1 maximally stimulated cell proliferation approximately 2-fold and 3-fold over that of the control, respectively.

[4] = Isoelectric point of peptide; assay type: physicochemical
[5] = system: full thickness punch wounds in rat skin; assay: Wound healing in vivo, full thickness punch wounds
Procedure: To study the effect of TA1 on wound healing in vivo, full thickness punch wounds were made in rat skin and treated with TA1 topically or by intraperitoneal injection with a seven-day study interval. For topical treatment, 5 μg of TA1 was applied in 50 μl saline on injury date and 48 hours post-injury. For intraperitoneal treatment, 60 μg of TA1 was administered in 300 μl saline on injury date and then every other day.

chronic wounds = assay: Pilot study in humans with chronic wounds, collagen synthesis; assay type: in vivo, human; conditions: 20 volunteers, biopsies at baseline and two months, preliminary results
Procedure: A pilot study of TA1 and TA5 was performed in humans with 20 volunteers with chronic wounds. Skin biopsies were taken at the baseline and at two months, subjected to histological analysis, immunohistological analysis, and objective and subjective observation. Immunohistochemistry endpoints were epidermal differentiation, epidermal proliferation, and markers of inflammation and were assayed by using anti-CD3 monoclonal antibody.

[6] = 10 μg/ml, 5×10^4 cells per well

Row | Substance | Cell Number per HPF, Chamber 1 ([1]; 0.1 μg/ml) [per HPF] | Cell Number per HPF, Chamber 2 ([1]; 0.1 μg/ml) [per HPF] | Cell Number per HPF, Chamber 3 ([1]; 0.1 μg/ml) [per HPF] | Cell Number per HPF, Mean ([1]; 0.1 μg/ml) [per HPF] | cell migration over migration in the presence of media alone [1] | migration response compared to positive controls VEGF, PDGF, FGF [1] | Cell Number per HPF, Chamber 1 ([1]; 0.5 μg/ml) [per HPF] | Cell Number per HPF, Chamber 2 ([1]; 0.5 μg/ml) [per HPF] | Cell Number per HPF, Chamber 3 ([1]; 0.5 μg/ml) [per HPF] | Cell Number per HPF, Mean ([1]; 0.5 μg/ml) [per HPF] | Cell Number per HPF, Chamber 1 ([1]; 1 μg/ml) [per HPF] | Cell Number per HPF, Chamber 2 ([1]; 1 μg/ml) [per HPF] | Cell Number per HPF, Chamber 3 ([1]; 1 μg/ml) [per HPF] | Cell Number per HPF, Mean ([1]; 1 μg/ml) [per HPF] | Cell Number per HPF, Chamber 1 ([1]; 5 μg/ml) [per HPF] | Cell Number per HPF, Chamber 2 ([1]; 5 μg/ml) [per HPF] | Cell Number per HPF, Chamber 3 ([1]; 5 μg/ml) [per HPF] | Cell Number per HPF, Mean ([1]; 5 μg/ml) [per HPF] | Cell Number per HPF, Chamber 2 ([1]; 10 μg/ml) [per HPF] | Cell Number per HPF, Chamber 3 ([1]; 10 μg/ml) [per HPF] | other results
1 | Ac-ANKGQAPGEAMKPSFLKEKKEVVERSKEEEGPAKMNLVIEMPKD (Ac-ANKGQAPGEAMKPSFLKEKKEVVERSKEEEGPAKMNLVIEMPKD) [TB4] | 18 | 12 | 26 | 19 | significantly enhanced cell migration | heightened responses | 33 | 39 | 50 | 41 | 45 | 47 | 63 | 52 | 55 | 65 | 57 | 59 | 77 | 66 | Cell Number per HPF, Mean ([1]; 10 μg/ml): 71 per HPF; Cell Number per HPF, Chamber 1 [1, 6]: 70 per HPF; concentration of maximal effect on migration [1]: 100 ng/mL; migration of cells into the wounded area compared to media alone (NHVEC): significantly increased; size of the ulcer (venous stasis ulceration; after another seven days (14 days), peripheral islands of healing): size of the ulcer was the same; improvement felt by the patient (venous stasis ulceration; after treating entire ulcer for seven days): 40%; status of ulcer (venous stasis ulceration; another seven days after FIG. 11): almost completely closed; status of ulcer (venous stasis ulceration; another two weeks, once daily, FIG. 12): no ulceration; clinical intensity of brown melasma, lentigines, post-inflammatory hyperpigmentation and ephelides ([2]; areas of treatment): definite reduction in the clinical intensity; effect on erythema of the healed wound ([2]; e.g. on the shin): reducing the erythema of the healed wound; erythema of poikiloderma vasculare of the neck secondary to chronic sun exposure ([2]; evaluation not continued): erythema was reducing; ulcers cleared ([3]; another five days (12 days)): approximately 90%; improvement in the ulcerations ([3]; one week, twice daily, dicloxacillin also given): 70-80%; maximal stimulation of cell proliferation over that of the control (endothelial cells): approximately 2 fold
2 | Ac-SDAAVDTSSEITTKDLKEKKEVVEEAEN [TA1] | 38 | 45 | 33 | 39 | significantly enhanced cell migration | heightened responses | 52 | 53 | 57 | 54 | 64 | 69 | 43 | 59 | 35 | 64 | 72 | 57 | 55 | 66 | Cell Number per HPF, Mean ([1]; 10 μg/ml): 57 per HPF; Cell Number per HPF, Chamber 1 [1, 6]: 51 per HPF; concentration of maximal effect on migration [1]: 100 ng/mL; migration of cells into the wounded area compared to media alone (NHVEC): significantly increased; status of ulcer (venous stasis ulceration; after 1 week, twice daily to the small 4 mm area): improvement was noted; deeper 4 mm area of the ulceration (venous stasis ulceration; after 2 weeks, twice daily): now level with the rest of the ulcer; isoelectric point [4]: 4.1; 4-day post-injury findings: capillary ingrowth and collagen deposition ([5]; 4-day post-injury): increased capillary ingrowth and collagen deposition; 4-day post-injury findings: reepithelialization, wound contraction, keratinocyte migration ([5]; 4-day post-injury): accelerated reepithelialization, wound contraction, and keratinocyte migration; decrease in wound width versus normal saline control ([5]; intraperitoneal 60 μg, p 0.0001 four-day, p 0.08 seven-day): 42%±9%; decrease in gap size versus normal saline (NS) control ([5]; intraperitoneal 60 μg, p 0.0007 for four-day and seven-day results): 42%±9%; decrease in wound width versus normal saline (NS) control ([5]; topical 5 μg, p 0.0001 four and seven-day results): 15%; decrease in gap size versus normal saline (NS) control ([5]; topical 5 μg, significant for seven-day results (p 0.04)): 18%±12%; stimulating collagen synthesis compared with tretinoin and vitamin C (chronic wounds): more effective in stimulating collagen synthesis than tretinoin or vitamin C; maximal stimulation of cell proliferation over that of the control (endothelial cells): ~3 fold
3 | KKLKKEENPLELKEKLKEKKNPLPSKEEEKASPFDKI -T-E-T-P-D-M-S [TA5] |  |  |  |  |  |  |  |  |  |  |  |  |  |  |  |  |  |  |  |  | new shallow ulceration resolved ([3]; one week, twice daily): approximately 70%; status of ulcer, left middle finger ([3]; one week, twice daily on ulcer base): dramatic improvement of the ulcer base; older, deeper ulceration healing ([3]; two weeks, twice daily): healing more rapidly than previously; stimulating collagen synthesis compared with tretinoin and vitamin C (chronic wounds): more effective in stimulating collagen synthesis than tretinoin or vitamin C
4 | VEGF [reference compound] |  |  |  |  |  |  |  |  |  |  |  |  |  |  |  |  |  |  |  |  | Cell Number per HPF, Chamber 1 ([1]; 10 ng/ml, positive control): 88 per HPF; Cell Number per HPF, Chamber 2 ([1]; 10 ng/ml, positive control): 95 per HPF; Cell Number per HPF, Chamber 3 ([1]; 10 ng/ml, positive control): 97 per HPF; Cell Number per HPF, Mean ([1]; 10 ng/ml, positive control): 93 per HPF
